Data on two compounds can be found in PMC12818745 (ACS Chemical Neuroscience, 2025).

Test [1] has as its target T1, eqBChE (equine serum butyrylcholinesterase) (Equus caballus, UniProt P81908).
T1 construct: eqBChE (equine serum butyrylcholinesterase); from tissue; host or cells: equine serum
The test can be described thus: Cholinesterase inhibition assay (modified Ellman's method), eqBChE. The test is classed as biochemical. From the text:
Compound series A and B were initially screened for their cholinesterase activity against eeAChE (Electrophorus electricus AChE) and eqBChE (equine serum butyrylcholinesterase), using an adaptation of the Ellman’s method. […]. […] Similarly, replacing the terminal triple bond in 7l with a nitrile group reduced its activity, while replacing the O-propargyl group with an N,N-dipropargyl group in 10 enhanced the inhibition of both enzymes, particularly BChE (Table ). The installation of an additional aryl ring in 7o further improved AChE inhibition, slightly increasing selectivity toward this enzyme. […]. […]. […]. The inhibitory activity of the synthesized compounds toward eeAChE and eqBChE was evaluated spectrophotometrically through a 96-well microplate modified Ellman’s method. The solutions of both enzymes were prepared as 0.025 U/mL in phosphate buffer at pH 7, from stock solutions of 5.05 U/mL and 7.50 U/mL, respectively. The stock solutions for the target compounds (0.1 M) were prepared in dimethyl sulfoxide (DMSO). […] The reaction mixture was prepared with 100 μL of the enzyme (eeAChE or eqBChE) and 50 μL of the test compound (or DMSO/water, not exceeding 0.2% of DMSO in the wells; i.e blank samples). After 5 min of the preincubation period at 37 °C, 50 μL of ATChI or BTChI and 50 μL of DTNB were added to each well, thus initiating the enzymatic reaction. The absorbance values were measured at 415 nm, for a total of 7.5 min, at every 2.5 min, using a microplate reader (Synergy multimode reader; BioTek). […]. All experiments were performed in triplicate.

The next test addresses T2, Aβ42 aggregation (Homo sapiens, UniProt P05067).
T2 construct: expressed in transfected cells; host or cells: E. coli BL21 (DE3), pET vector
The test can be described thus: Thioflavin S assay of Aβ42 aggregation in E. coli cells overexpressing Aβ42. The test is classed as cell-based, Escherichia coli. The following applies: read-out: Aβ42 inhibition %. The gist of the method: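 E. coli BL21(DE3) expressing Met-Aβ42 were grown in M9 medium with 25 μM ThS, induced with IPTG at OD600 0.6 and grown overnight at 37 °C with compound (final 10 μM). ThS emission at 485 nm (ex 445 nm, 25 °C) was normalised to OD600. Uninduced cells set 0% and induced DMSO cells 100%.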

The target in another test is AChE (Electrophorus electricus, UniProt O42275). The test can be described thus: Kinetic analysis (Lineweaver–Burk), AChE. It counts as biochemical. To be noted: Lineweaver–Burk plots, substrate 50–800 μM. How it is done:
(§1) Based on the computational predictions, derivatives 10 (series A) and 11r (series B) were initially expected to interact with both CAS and PAS of AChE and BChE. However, to better understand the actual mechanism of action of these compounds, kinetic studies were performed (Figure ). […].
(§2) […]. The enzymatic reactions and measurements were performed using the same assay conditions, as described above for the inhibition of both enzymes. All experiments were performed in triplicate. Linear regression analysis was performed with GraphPad Prism 8.0.2 (GraphPad Software Inc.).

Another test deals with T3, BChE (Equus caballus, UniProt P81908).
T3 construct: eqBChE (equine serum butyrylcholinesterase); from tissue; host or cells: equine serum
The test can be described thus: Kinetic analysis (Lineweaver–Burk), BChE. The test is classed as biochemical. The following applies: Lineweaver–Burk plots, substrate 50–800 μM. The protocol: as §1, §2

Sequence of AChE (O42275 24-633): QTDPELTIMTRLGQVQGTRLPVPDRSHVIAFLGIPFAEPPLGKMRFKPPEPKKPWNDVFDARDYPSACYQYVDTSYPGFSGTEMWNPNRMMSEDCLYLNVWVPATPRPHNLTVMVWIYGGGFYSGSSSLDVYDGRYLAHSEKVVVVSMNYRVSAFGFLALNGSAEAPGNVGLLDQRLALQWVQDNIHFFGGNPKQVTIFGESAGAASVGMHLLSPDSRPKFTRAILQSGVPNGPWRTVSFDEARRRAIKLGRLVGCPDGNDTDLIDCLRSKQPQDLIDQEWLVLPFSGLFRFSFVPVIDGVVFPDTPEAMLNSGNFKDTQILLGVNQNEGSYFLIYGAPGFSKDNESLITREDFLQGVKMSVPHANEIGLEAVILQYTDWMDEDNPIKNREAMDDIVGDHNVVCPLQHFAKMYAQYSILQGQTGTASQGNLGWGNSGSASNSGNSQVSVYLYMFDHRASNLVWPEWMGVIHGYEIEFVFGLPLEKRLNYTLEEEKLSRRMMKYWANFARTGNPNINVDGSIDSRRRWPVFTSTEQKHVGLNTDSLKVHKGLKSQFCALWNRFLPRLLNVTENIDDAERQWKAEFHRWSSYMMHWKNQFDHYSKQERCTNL
T2 sequence (P05067 672-713): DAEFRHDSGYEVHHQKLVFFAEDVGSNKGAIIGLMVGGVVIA
T3 sequence (P81908 whole entry): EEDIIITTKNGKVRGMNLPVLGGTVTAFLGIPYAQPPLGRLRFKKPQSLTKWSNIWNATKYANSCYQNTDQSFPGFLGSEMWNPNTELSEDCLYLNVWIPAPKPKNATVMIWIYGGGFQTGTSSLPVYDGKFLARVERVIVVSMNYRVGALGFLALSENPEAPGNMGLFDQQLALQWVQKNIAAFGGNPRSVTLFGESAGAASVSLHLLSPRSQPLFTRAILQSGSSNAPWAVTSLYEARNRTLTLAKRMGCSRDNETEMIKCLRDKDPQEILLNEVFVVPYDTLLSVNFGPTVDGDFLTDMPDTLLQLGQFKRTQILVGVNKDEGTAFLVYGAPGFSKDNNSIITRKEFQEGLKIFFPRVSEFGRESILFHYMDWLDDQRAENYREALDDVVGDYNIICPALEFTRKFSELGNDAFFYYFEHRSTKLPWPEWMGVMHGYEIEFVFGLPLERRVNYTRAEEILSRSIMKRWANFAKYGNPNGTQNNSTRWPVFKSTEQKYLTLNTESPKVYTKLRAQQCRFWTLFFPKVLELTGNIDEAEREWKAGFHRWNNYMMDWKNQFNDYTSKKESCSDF
T1 sequence (P81908 whole entry): as above

A word on the IC50: it is the midpoint of a concentration-inhibition curve. Broadly, the inhibition is how much of the control response was suppressed. In the case of `COc1ccc2c(=O)c3cc4c(cc3oc2c1)-c1cc(Cl)ccc1OC4` [Compound 11r, 2-Chloro-11-methoxy-6H,8H-chromeno[3,4-b]xanthen-8-one], the IC50 in test [1] was determined as 6.3 ± 0.6 µM. Also, the inhibition at 50 µM on Aβ42 aggregation was determined as 57 ± 5.7%. Also, the “Type of inhibition, AChE” value at AChE was “reversible competitive inhibition”. Besides, the “Type of inhibition, BChE” value at BChE was “reversible competitive inhibition”.

With `C#CCN(CC#C)c1ccccc1/C=C/c1cc(=O)c2ccccc2o1` [Compound 10, (E)-2-{2-[Di(prop-2-yn-1-yl)amino]styryl}-4H-chromen-4-one], in test [1], the IC50 was 5.9 ± 0.4 µM. Besides, the inhibition at 50 µM on Aβ42 aggregation came to 36 ± 18.3%. At AChE, the “Type of inhibition, AChE” value is given as “reversible competitive inhibition”. The “Type of inhibition, BChE” value on BChE was “reversible competitive inhibition”.
